Source: paper PMC10110893, “[…]-derived synthetic cannabinoids inhibit T-type calcium channels with divergent effects on seizures in rodent models of epilepsy” (Frontiers in Physiology, 2023)

Legend:
human Cav3.1 = molecular target: T1, human Cav3.1 (Homo sapiens, UniProt O43497); assay: Whole-cell patch-clamp electrophysiology, Cav3.1; assay type: cell-based
T1 construct: expressed in transfected cells; host or cells: HEK293 FlpIn T-Rex cells (Invitrogen)
Procedure: All whole-cell voltage-clamp recordings from HEK293 FlpIn T-Rex cells stably transfected with human Cav3.1 were performed at room temperature. At least 24 h prior to experiments, cells were detached from flasks using trypsin/EDTA and plated into 10 cm sterile tissue culture dishes containing 10 mL of supplemented DMEM and 10–15 glass coverslips (12 mm diameter, ProScitech, QLD, Australia). Culture dishes were then kept overnight in same conditions as flasks to allow cells to adhere to coverslips. They were then transferred to a 30°C/5% CO2 incubator to inhibit cell proliferation until ready to be used for electrophysiology experiments. At this stage, channel expression was induced with tetracycline (2 μg/mL, Sigma-Aldrich) 8–24 h prior to recording cells.
External recording solutions contained (in mM): 114 CsCl, 5 BaCl2, 1 MgCl2, 10 HEPES, 10 glucose, adjusted to pH 7.4 with CsOH. The internal patch pipette solution contained (in mM): 126.5 CsMeSO4, 2 MgCl2, 11 EGTA, 10 HEPES adjusted to pH 7.3 with CsOH. […] Liquid junction potentials for the above solutions were calculated before experiments using pClamp 10 software and corrected during experiments. […] Currents were elicited from a holding potential of −100 mV and were measured by conventional whole-cell patch clamp techniques using an Axopatch 200B amplifier in combination with Clampex 9.2 software (Molecular Devices, Sunnyvale, CA). […]

[1] = Brain concentration after sub-chronic administration in chow; assay type: in vivo, mouse; conditions: 5,000 mg/kg chow ad libitum P18–23, male and female mice, n = 10
Procedure: Plasma samples (50 μL) were spiked with an internal standard (diazepam) and vortexed with 1 M NaOH (50 μL) and methyl tert-butyl ether (1 mL) to achieve protein precipitation. The organic layer was isolated by centrifugation (4,000 g for 3 min) before being frozen for 60 min at −80°C, evaporated to dryness using N2, and reconstituted in 30% acetonitrile and 0.1% formic acid in water for analysis. Brain hemispheres were homogenised in a 10x w/v 1:1 methanol-water solution using a Biospec Tissue-Tearor (Bartlesville, United States) and centrifuged at 20,000 g for 30 min at 4°C. Supernatant (100 μL) was collected and prepared following the same method as plasma.
SB2193 and SB2193F concentrations in brain and plasma samples were assessed by high performance liquid chromatography-tandem mass spectrometry (HPLC-MS/MS) using a Shimadzu Nexera liquid chromatograph coupled with a Shimadzu 8,030 triple quadrupole mass spectrometer (Kyoto, Japan). […]
Quantification was achieved by comparing experimental samples to plasma and brain standards prepared with known concentrations of SB2193 or SB2193F. Samples were quantified against a 7-point standard curve (R ^2 > 0.98 for both analytes). […]

T1 sequence (O43497 whole entry): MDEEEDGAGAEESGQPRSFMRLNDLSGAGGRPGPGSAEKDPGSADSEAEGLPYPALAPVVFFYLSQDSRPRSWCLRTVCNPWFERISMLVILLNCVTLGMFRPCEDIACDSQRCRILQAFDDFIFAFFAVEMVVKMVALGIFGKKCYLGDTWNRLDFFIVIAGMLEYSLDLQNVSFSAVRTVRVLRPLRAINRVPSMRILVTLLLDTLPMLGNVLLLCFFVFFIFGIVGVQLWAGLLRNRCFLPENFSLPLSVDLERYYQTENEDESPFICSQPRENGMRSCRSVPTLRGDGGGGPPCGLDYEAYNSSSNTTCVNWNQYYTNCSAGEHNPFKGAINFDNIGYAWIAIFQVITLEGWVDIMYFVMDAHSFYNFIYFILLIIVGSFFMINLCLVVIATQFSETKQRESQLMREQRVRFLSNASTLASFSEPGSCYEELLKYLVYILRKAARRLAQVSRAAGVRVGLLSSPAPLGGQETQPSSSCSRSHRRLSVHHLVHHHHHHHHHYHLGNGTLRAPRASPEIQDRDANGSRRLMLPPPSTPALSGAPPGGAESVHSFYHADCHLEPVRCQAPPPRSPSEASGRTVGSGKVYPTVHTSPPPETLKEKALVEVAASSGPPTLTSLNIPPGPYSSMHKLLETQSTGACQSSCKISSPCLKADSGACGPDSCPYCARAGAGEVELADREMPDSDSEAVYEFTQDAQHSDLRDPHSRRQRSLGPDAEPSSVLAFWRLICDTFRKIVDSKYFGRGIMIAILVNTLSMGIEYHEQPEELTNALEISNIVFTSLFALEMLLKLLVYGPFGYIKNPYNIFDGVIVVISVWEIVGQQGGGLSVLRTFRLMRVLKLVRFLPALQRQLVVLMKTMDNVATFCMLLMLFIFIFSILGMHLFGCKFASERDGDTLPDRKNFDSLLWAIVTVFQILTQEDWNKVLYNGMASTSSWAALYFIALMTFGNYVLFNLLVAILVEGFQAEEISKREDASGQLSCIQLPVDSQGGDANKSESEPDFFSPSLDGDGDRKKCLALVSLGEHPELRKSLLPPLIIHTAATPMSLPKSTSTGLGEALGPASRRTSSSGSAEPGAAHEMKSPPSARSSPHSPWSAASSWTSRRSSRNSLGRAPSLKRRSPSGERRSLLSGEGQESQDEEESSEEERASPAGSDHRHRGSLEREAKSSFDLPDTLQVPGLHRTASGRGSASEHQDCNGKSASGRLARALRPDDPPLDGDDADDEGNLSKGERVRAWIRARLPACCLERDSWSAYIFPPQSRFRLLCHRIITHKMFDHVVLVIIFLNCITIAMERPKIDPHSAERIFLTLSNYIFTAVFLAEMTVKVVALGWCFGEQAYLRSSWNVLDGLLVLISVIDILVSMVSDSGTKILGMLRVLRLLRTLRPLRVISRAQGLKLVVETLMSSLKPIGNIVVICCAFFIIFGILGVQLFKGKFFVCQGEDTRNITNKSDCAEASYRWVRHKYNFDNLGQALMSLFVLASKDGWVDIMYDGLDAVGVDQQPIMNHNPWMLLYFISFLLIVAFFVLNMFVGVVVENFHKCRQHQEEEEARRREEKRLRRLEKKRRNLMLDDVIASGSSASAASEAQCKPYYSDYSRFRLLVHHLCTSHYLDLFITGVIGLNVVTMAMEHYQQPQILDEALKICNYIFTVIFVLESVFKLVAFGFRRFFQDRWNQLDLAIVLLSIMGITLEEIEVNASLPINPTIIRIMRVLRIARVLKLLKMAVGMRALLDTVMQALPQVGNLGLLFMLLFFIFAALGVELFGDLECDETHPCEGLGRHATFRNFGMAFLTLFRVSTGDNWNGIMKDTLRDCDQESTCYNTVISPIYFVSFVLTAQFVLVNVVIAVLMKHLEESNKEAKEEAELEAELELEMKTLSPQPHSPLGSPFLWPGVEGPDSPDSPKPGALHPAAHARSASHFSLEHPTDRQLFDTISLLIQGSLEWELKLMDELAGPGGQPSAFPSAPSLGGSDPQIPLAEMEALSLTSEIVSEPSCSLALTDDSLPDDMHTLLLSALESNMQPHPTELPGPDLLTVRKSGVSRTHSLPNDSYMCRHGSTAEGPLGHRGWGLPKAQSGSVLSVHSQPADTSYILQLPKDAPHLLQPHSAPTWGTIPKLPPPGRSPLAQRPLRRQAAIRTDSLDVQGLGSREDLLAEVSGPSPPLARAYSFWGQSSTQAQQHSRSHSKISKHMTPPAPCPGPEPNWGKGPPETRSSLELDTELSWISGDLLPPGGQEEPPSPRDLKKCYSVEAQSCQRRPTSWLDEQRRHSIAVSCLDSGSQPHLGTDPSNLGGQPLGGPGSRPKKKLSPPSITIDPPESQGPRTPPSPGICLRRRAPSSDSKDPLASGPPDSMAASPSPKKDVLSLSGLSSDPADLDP

In the case of `CCCCCn1cc(C(=O)N2CCN(C(=O)OC(C)(C)C)CC2)c2ccccc21` [SB2193], the “potency in patch clamp less than that determined by the FLIPR assay” value (human Cav3.1; Cav3.1, patch clamp vs FLIPR) is reported as “approximately 4 fold”, the IC50 (human Cav3.1; whole-cell patch clamp, n = 7–8, read-out: Cav3.1 pIC50 (converted)) is reported as 3.55 µM and the brain concentration [1] is reported as 1700 ± 600 nM.
